# Reference: US20140121231A1, “PYRANOPYRIDONE INHIBITORS OF TANKYRASE” (Hoffmann-La Roche, Inc., priority 2012, published 2014)
# What was measured:
# [1] = tested on: Wnt stimulated TCF transcriptional activity; assay: Tankyrase 1 Assay (Example 72): HEK293-TS 112 TCF reporter cell line; type: cell-based; settings: footnote 2: Tankyrase 1 inhibition assay in Example 72 (TOPbrite luciferase reporter, Wnt3A 0.5 ug/mL, 16 hours); read-out: TNKS1 IC50
# Experimental: Inhibition of the Wnt stimulated TCF transcriptional activity by tankyrase inhibitors was determined utilizing a HEK293-TS 112 TCF reporter cell line. A Wnt-responsive luciferase reporter named TOPbrite was constructed by cloning the enhancer element of Super8xTOPFlash containing eight TCF/LEF binding sites into the pGL4.28 vector (Promega) upstream of the minimal promoter element, and selecting for hygromycin B resistance (50 μg/ml). Cells were seeded into 384-well plates in the presence of 0.5 ug/mL of Wnt3A at a density of 20,000 cells per well in 25 ul of F:12 DMEM media supplemented with 10% FBS and 2 mM Glutamax. Cells seeded without the addition of Wnt3A were used as background signal. Compounds of various concentrations were added to cells and incubated at 37 degrees with 5% CO2 for 16 hours. The assay was terminated with the addition of Promega Dual Glo kit per manufacturer's instructions. A ratio of TOPbrite Firefly Luciferase and SV40 Renillla Luciferase was calculated and the background from the neutral wells was subtracted yielding the final normalized measurement of TCF transcriptional activity. Compound IC50s were determined by four-parameter curve fitting using GeneData software.
# [2] = biological target: T1, PARP1 (His6-PARP1, full length) (Homo sapiens, UniProt P09874); assay: TR-FRET Binding Assay (Example 71), PARP1; settings: TR-FRET assay of Example 71 with His6-PARP1
# T1 construct: His6-PARP1 (full length) can be substituted for His6-TNKS 1
# Method in brief: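 Competition binding: test compound displaces biotin-IWR2 from His6-PARP1 (full length), read by Eu-streptavidin/APC-anti-His6 TR-FRET. PARP1 30 min at 26°C with compound and probe in Tris pH 7.4 buffer with DTT, BSA and NP-40, then detection reagents for 60 min. Excitation 330 nm, emission 615 and 665 nm; […].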
# tankyrase 2 (His6-TNKS2) = biological target: T2, tankyrase 2 (His6-TNKS2) (Homo sapiens, UniProt Q9H2K2); assay: μHTS-TNKS-IWR2 TR-FRET Binding Assay (Example 71), TNKS2; settings: footnote 1: Tankyrase 1 and 2 inhibition assay in Example 71 (TR-FRET)
# T2 construct: His6-tankyrase 2 (construct: 934-1166) (His6-TNKS2)
# Tankyrase 1 (TNKS1) = biological target: T3, Tankyrase 1 (TNKS1) (Homo sapiens, UniProt O95271); assay: μHTS-TNKS-IWR2 TR-FRET Binding Assay (Example 71), TNKS1
# T3 construct: His6-TNKS1, MW=28.2 KDa (construct: 1088-1327, 1266M)
# T3 sequence (O95271 1088-1327): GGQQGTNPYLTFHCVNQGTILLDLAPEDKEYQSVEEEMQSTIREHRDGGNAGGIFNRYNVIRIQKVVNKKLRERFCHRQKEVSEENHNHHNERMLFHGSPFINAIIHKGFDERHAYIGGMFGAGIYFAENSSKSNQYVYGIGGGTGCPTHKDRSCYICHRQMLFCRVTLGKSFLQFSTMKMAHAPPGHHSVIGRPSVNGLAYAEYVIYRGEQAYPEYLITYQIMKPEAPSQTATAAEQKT
# T1 sequence (P09874 whole entry, species assumed): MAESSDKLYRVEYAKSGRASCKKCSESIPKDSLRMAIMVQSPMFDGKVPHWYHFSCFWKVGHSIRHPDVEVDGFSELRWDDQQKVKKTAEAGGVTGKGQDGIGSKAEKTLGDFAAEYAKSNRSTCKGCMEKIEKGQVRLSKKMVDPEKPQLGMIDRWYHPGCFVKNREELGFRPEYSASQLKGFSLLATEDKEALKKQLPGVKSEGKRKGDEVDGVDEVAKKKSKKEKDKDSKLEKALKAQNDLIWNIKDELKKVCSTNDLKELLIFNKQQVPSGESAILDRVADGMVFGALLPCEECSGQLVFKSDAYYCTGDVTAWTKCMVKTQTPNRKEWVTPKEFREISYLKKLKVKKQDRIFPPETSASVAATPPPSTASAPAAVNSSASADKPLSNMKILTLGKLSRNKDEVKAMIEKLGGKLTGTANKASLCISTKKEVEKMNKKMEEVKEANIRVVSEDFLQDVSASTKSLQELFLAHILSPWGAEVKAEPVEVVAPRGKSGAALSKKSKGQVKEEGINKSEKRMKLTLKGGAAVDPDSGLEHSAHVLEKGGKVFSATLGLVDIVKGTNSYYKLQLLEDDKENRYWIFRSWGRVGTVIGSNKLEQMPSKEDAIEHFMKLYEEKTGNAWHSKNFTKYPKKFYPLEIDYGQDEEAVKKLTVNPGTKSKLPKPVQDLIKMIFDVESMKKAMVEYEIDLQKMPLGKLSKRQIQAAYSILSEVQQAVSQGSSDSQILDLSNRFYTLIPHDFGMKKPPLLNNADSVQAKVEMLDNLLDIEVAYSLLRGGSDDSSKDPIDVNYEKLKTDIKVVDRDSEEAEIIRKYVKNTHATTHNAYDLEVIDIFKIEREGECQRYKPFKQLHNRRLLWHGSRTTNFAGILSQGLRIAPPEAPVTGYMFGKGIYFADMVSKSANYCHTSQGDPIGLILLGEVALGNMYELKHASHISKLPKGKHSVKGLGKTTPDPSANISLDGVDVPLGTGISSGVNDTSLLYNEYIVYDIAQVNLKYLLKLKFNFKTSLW
# T2 sequence (Q9H2K2 934-1166): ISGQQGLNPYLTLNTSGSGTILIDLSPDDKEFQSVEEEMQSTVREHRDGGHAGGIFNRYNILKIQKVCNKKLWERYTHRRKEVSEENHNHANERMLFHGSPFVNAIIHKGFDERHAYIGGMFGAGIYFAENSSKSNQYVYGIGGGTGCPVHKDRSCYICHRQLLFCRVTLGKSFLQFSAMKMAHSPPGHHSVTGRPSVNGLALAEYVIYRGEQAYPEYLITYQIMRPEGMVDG
SMILES,IC50 [1] [µM],IC50 [2] [µM],IC50 (tankyrase 2 (His6-TNKS2)) [µM],IC50 (Tankyrase 1 (TNKS1)) [µM]
"Cc1cccc2c(=O)[nH]c3c(c12)COC(CC(C)O)C3 (stereo not shown) [Compound I-76, 3-(2-hydroxypropyl)-10-methyl-1 3 4 5-tetrahydropyrano[4,3-c]isoquinolin-6-one]",0.0159,–,–,–
"CC(C)C1Cc2[nH]c(=O)c3cccc(F)c3c2CO1 (stereo not shown) [Compound I-69, 10-Fluoro-3-isopropyl-1 3 4 5-tetrahydropyrano[4,3-c]isoquinolin-6-one]",0.0112,–,–,–
"Cc1cccc2c(=O)[nH]c3c(c12)COC(C1CCN(CCO)CC1)C3 (stereo not shown) [Compound I-75, 3-[1-(2-hydroxyethyl)-4-piperidyl]-10-methyl-1 3 4 5-tetrahydropyrano[4,3-c]isoquinolin-6-one]",0.0272,–,–,–
"Cc1cccc2c(=O)[nH]c3c(c12)COC(C1CCN(C2COC2)CC1)C3 (stereo not shown) [Compound I-71, 10-methyl-3-[1-(oxetan-3-yl)-4-piperidyl]-1 3 4 5-tetrahydropyrano[4,3-c]isoquinolin-6-one]",0.00201,–,–,–
"Cc1cccc2c(=O)[nH]c3c(c12)COC(C1CCN(C2CCOCC2)CC1)C3 (stereo not shown) [Compound I-72, 10-Methyl-3-(1-tetrahydropyran-4-yl-4-piperidyl)-1 3 4 5-tetrahydropyrano[4,3-c]isoquinolin-6-one]",0.0924,–,–,–
"CC(C)C1Cc2[nH]c(=O)c3cccc(Cl)c3c2CO1 (stereo not shown) [Compound I-70, 10-chloro-3-isopropyl-1 3 4 5-tetrahydropyrano[4,3-c]isoquinolin-6-one]",0.0129,–,–,–
"Cc1cccc2c(=O)[nH]c3c(c12)COC(C(C)(C)CO)C3 (racemic) [Compound I-1, rac-2-(2-Hydroxy-1,1-dimethyl-ethyl)-5-methyl-1,2,4,10-tetrahydro-3-oxa-10-aza-phenanthren-9-one]",0.0106,0.0918,–,–
"Cc1cccc2c(=O)[nH]c3c(c12)COC(C1CCN(S(=O)(=O)C2CCOCC2)CC1)C3 (stereo not shown) [Compound I-74, 10-methyl-3-(1-tetrahydropyran-4-ylsulfonyl-4-piperidyl)-1 3 4 5-tetrahydropyrano[4,3-c]isoquinolin-6-one]",0.0095,–,–,–
"COCCN1CCC(C2Cc3[nH]c(=O)c4cccc(C)c4c3CO2)CC1 (stereo not shown) [Compound I-73, 3-[1-(2-methoxyethyl)-4-piperidyl]-10-methyl-1 3 4 5-tetrahydropyrano[4,3-c]isoquinolin-6-one]",0.0294,–,–,–
"Cc1cccc2c(=O)[nH]c3c(c12)COC(C1CCOCC1)C3 (racemic) [Compound I-60, rac-5-Methyl-2-(tetrahydro-pyran-4-yl)-1,2,4,10-tetrahydro-3-oxa-10-aza-phenanthren-9-one]",–,0.0797,0.0179,0.0241
"CC(C)(C)OC(=O)N1CCC(C2Cc3[nH]c(=O)c4ccccc4c3CO2)CC1 (racemic) [Compound I-21, rac-4-(9-Oxo-1,4,9,10-tetrahydro-2H-3-oxa-10-aza-phenanthren-2-yl)-piperidine-1-carboxylic acid tert-butyl ester]",–,0.0159,0.0467,0.0335
